Source: patent publication US5958947A, “DNA-affinic hypoxia selective cytotoxins” (priority 1996, dated 1999)
“And” between values parts separate entries of the source, which are not always exact repeats. Equal values may be shown once. Read-outs that look alike come from different tables or passages of the source.

Experiments:
[1] = test system: V79 Chinese hamster lung cells; assay: Radiosensitization of V79 cells; format: cell-based; settings: for EC (SER 1.6): Cricetulus griseus
Protocol: (§1) Samples of V79 Chinese hamster lung cells used in the following experiments were prepared as follows. V79 cells, exponentially growing as monolayer cultures in RPMI 1640 medium (Mediatech) supplemented with 10% fetal calf serum, were trypsinized, centrifuged for 5 min, harvested, then suspended in 25 ml Erlenmeyer flasks fitted with rubber caps at 5×10^5 cells/ml (5 ml). Individual flasks either were shaken (100 rpm) at 37° C. under aerobic conditions or made hypoxic by gassing with a 95% N2 (nitrogen)/5% CO2 (carbon dioxide) humidified gas mixture for 1 hour.
Radiosensitization studies were performed on V79 cells in a manner similar to the acute toxicity experiments, except that the survival fraction was determined after a predetermined radiation dose. […] One Gy is equal to 100 rads, wherein one rad is the quantity of ionizing radiation that results in the absorption of 100 ergs of energy per gram of irradiated material. Hypoxia was maintained throughout irradiation. […] Sensitization enhancement ratios (SER) were determined at a 10% survival level. […] The plotted points in FIGS. 3 and 4 represent the mean of 2 or 3 replicate experiments.

calf thymus Topo I = target: T1, calf thymus Topo I (Bos taurus, UniProt F1MN93); assay: Topoisomerase I interaction (relaxation of supercoiled DNA); format: biochemical
T1 construct: purchased TopoGEN, Inc., Columbus, Ohio; host or cells: calf thymus
T1 sequence (F1MN93 1-767): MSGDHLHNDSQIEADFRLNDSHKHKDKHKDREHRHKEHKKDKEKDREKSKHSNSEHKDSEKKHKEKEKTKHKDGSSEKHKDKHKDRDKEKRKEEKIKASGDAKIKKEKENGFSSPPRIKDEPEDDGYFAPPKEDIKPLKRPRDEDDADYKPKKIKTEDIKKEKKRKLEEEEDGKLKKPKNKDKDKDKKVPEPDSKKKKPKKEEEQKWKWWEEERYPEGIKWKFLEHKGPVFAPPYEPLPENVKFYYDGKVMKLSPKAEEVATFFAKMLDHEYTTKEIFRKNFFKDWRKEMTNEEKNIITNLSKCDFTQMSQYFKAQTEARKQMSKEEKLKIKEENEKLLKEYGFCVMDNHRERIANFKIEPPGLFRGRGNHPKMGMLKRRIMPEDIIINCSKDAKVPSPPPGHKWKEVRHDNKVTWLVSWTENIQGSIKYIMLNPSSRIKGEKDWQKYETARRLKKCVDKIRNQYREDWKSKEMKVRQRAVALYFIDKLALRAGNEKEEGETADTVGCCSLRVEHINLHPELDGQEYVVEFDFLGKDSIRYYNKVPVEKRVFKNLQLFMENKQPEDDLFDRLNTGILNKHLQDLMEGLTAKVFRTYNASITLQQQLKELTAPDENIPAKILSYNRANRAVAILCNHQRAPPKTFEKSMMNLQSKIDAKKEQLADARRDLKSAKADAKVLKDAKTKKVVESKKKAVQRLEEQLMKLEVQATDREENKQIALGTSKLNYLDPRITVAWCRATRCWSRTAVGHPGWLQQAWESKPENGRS
Protocol: In particular, a Topo I drug screening kit (TopoGEN, Inc., Columbus, Ohio) was used to assay the topoisomerase I THNLA-1 interaction. […] Camptothecin is a Topoisomerase I poison used as an anticancer drug. Camptothecin stabilizes the Topo I-DNA cleavable complex, and therefore prevents the resealing of DNA by Topo-I.
Individual reaction mixtures were heated for 30 minutes at 37° C. on a heating block, and then 2 μl of 10% SDS - proteinase K solution was added to each reaction mixture. The resulting reaction mixtures then were heated for an additional 30 minutes at 37° C. The reaction mixtures in a loading buffer were extracted with CHCl3 prior to submarine electrophoresis on a 1% agarose gel. The DNA bands were observed visually by staining with ethidium bromide (0.5 μg/ml).

[2] = Acute aerobic and hypoxic cytotoxicity (colony formation); format: cell-based, Chinese hamster; settings: chinese hamster, aerobic v79 cells, V79 cells, aerobic, 1 hour, 37° C.; 50% inhibition of clonogenicity
Protocol: as §1
(§2) To determine the fraction of surviving cells, samples were removed, diluted and plated to provide 2×10^2 to 2×10^4 cells/well on 60 mm Linbro multi-well plates (Flow Laboratories, McLean, Virginia). The plates were incubated at 37° C. for 6 days, stained with crystal violet and examined for colony formation. Colonies of 50 cells or greater were counted. Each plotted point in FIGS. 1 and 2 represent the mean of three or four replicate experiments.

[3] = test system: V79 Chinese hamster lung cells; assay: as above; format: cell-based
Protocol: as §1, §2

V79 cells [4] = assay: Isoeffective to the oxygen dose (IsD); format: cell-based, Chinese hamster; settings: Cricetulus griseus, V79, 1 h, 7.5 Gy, 1 hour at 37° C.; read-out: Isoeffective to the oxygen dose at 7.5 Gy: IsD(7.5)
Source text: The survival fraction under hypoxic conditions (plotted versus compound concentration) meets the aerobic survival fraction (radiation toxicity) at the IsD. The IsD value is a useful indicator of the overall potency of a compound as a sensitizer and cytotoxin of hypoxic cells. IsD is especially useful when comparing different compounds for hypoxic cytotoxicity and radiosensitizing efficacy.
FIGS. 5 and 6 illustrate the IsD at 7.5 Gy (FIG. 5A) and 20 Gy (FIG. 5B). FIGS. 5A and 6A include a comparison to the prior art NLA-1 compound. V79 cells were irradiated at 7.5 Gy or 20 Gy after a 1 hour exposure under hypoxia (symbols) or air (straight line), at various drug concentrations. No toxicity or radiosensitization for any tested compound was observed under aerobic conditions over the tested concentration ranges. IsD values were calculated from the intersections of the survival fractions of the hypoxic curves with the survival fraction in air. All data points in FIGS. 5 and 6 represent the mean of two replicate experiments.

[5] = Partition coefficient in octanol/water; format: physicochemical
Protocol: The partition coefficient of the hypoxia selective cytotoxins of the present invention were determined by the method of T. Fujita et al., J. Am. Chem. Soc., 86, 5175-5180 (1964), incorporated herein by reference.

solid tumors = settings: cited from earlier work
V79 cells [6] = assay: Drug uptake in the presence of ammonium chloride; format: cell-based, Chinese hamster; settings: aerobic V79 cells, 60 μM input, 50 mM NH4Cl (stated for THNLA-1)
Protocol: Uptake measurements in the presence of the lysosomotropic agent ammonium chloride (NH4 Cl) also were performed in a manner as previously described.
Concentrations were determined by UV spectrophotometry at 330 nm. The plotted points represent the mean of two experiments.

SMILES: Cl.O=[N+]([O-])c1nccn1CCCNc1c2ccccc2nc2ccccc12 [NLA-1, 9-[3-(2-nitro-1-imidazolyl)propylamino]acridine hydrochloride, reference compound]
- EC (SER 1.6) ([1]; 1 h, concentration yielding an SER of 1.6, hypoxic V79 cells, read-out: Hypoxic radiosensitizing potency: C1.6): 8 µM
- EC (SER 1.6) ([1]; hypoxic radiosensitization, V79 cells (tables), read-out: Intracellular concentration at C1.6: C1.6i): 885 µM
- EC (SER 1.6) ([1]; hypoxic radiosensitization, V79 cells, read-out: Intracellular concentration for an SER of 1.6: C1.6i): 885 µM
- radioprotection under aerobic conditions ([1]; aerobic): afforded radioprotection under aerobic conditions
- Topo I-dependent single-stranded DNA cleavage (calf thymus Topo I): observed
- IC50 (calf thymus Topo I; Topo I inhibition (50%)-dose, Topo I-induced relaxation of supercoiled DNA): ~12 µM and 12 µM
- IC50 at 1 h [2]: 84 µM
- IC50 ([3]; Cricetulus griseus, V79, 1 h, V79 cells, hypoxia, 1 hour, 37° C., 50% inhibition of clonogenicity): 15 µM
- Hypoxic selectivity (differential aerobic/hypoxic toxicity): IC50/A,1h /IC50/H,1h ([3]; V79 cells, 1 hour, 37° C.): 5.5
- cytotoxicity / selectivity relative to THNLA-1 or NLA-1 ([3]; from IC50/H, IC50/A and their ratio): about a two times more potent hypoxic cytotoxin
- EC (isoeffective to oxygen at 7.5 Gy) (V79 cells [4]): ~11 µM
- Partition coefficient in octanol/water: PCo/w [5]: 0.07
- logP ([5]; read-out: Partition coefficient in octanol/water: PCo/w (converted)): -1.15
- radiosensitization in vivo / in solid tumors (prior art) (solid tumors): failure of NLA-1 as radiosensitizer in solid tumors
- factor of decrease of Ci in the presence of NH4Cl (V79 cells [6]): about 3
